# According to the Kinase Knowledgebase extract (Sharma et al. 2016):
# Biological target: MAPK14 (human) (UniProt Q16539)
# Test: Inhibition of MAPK14 Kinase Activity
# MAPK14 (human), sequence (Q16539 whole entry, looked up): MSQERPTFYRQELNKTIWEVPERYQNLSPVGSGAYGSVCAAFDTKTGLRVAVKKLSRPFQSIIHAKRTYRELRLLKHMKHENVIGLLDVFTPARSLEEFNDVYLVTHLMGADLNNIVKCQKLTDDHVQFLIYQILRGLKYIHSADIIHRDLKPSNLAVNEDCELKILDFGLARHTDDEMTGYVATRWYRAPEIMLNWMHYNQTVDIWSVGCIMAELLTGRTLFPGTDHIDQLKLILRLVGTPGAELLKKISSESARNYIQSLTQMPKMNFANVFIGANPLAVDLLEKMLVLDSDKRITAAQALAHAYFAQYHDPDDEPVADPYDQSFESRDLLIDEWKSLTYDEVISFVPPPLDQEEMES
row,SMILES,IC50
1,Cc1cc(F)ccc1-c1nc(NC2CCOCC2)nc2c1ccc(=O)n2-c1c(F)cccc1F,< 10 µM
2,CSc1nc(-c2ccccc2Cl)c2ccc(=O)n(-c3ccccc3Cl)c2n1,< 10 µM
3,Cc1cc(F)ccc1-c1nc(NCCO)nc2c1ccc(=O)n2-c1ccccc1C,< 10 µM
4,CCNc1nc(-c2ccc(F)cc2C)c2ccc(=O)n(-c3c(F)cccc3F)c2n1,< 10 µM
5,Cc1cc(F)ccc1-c1nc(O)nc2c1ccc(=O)n2-c1ccccc1F,< 10 µM
6,Cc1cc(F)ccc1-c1nc(NC2CCOCC2)nc2c1ccc(=O)n2-c1ccccc1F,< 10 µM
7,CCN(CC)CCNc1nc(-c2ccccc2Cl)c2ccc(=O)n(-c3ccccc3Cl)c2n1,< 10 µM
8,CSc1nc(-c2ccc(F)cc2C)c2ccc(=O)n(-c3ccccc3F)c2n1,< 10 µM
9,CCNC(=O)CNc1nc(-c2ccc(F)cc2C)c2ccc(=O)n(-c3c(F)cccc3F)c2n1,< 10 µM
10,COC(=O)CNc1nc(-c2ccc(F)cc2C)c2ccc(=O)n(-c3c(F)cccc3F)c2n1,< 10 µM
11,Cc1cc(F)ccc1-c1nc(N[C@@H](C)CO)nc2c1ccc(=O)n2-c1ccccc1F,< 10 µM
12,Cc1cc(F)ccc1-c1nc(Nc2nnn[nH]2)nc2c1ccc(=O)n2-c1c(F)cccc1F,< 10 µM
13,COc1nc(-c2ccc(F)cc2C)c2ccc(=O)n(-c3c(F)cccc3F)c2n1,< 10 µM
14,CS(=O)(=O)c1nc(-c2ccccc2)c2ccc(=O)n(-c3ccccc3)c2n1,< 10 µM
15,CCOc1nc(-c2ccc(F)cc2C)c2ccc(=O)n(C3CCCCC3)c2n1,< 10 µM
16,Cc1cc(F)ccc1-c1nc(NC(C)(C)CO)nc2c1ccc(=O)n2-c1ccccc1C,< 10 µM
17,Cc1cc(F)ccc1-c1nc(S(C)(=O)=O)nc2c1ccc(=O)n2-c1ccccc1C,< 10 µM
18,Cc1cc(F)ccc1-c1nc(NC(CO)CO)nc2c1ccc(=O)n2-c1c(F)cccc1F,< 10 µM
19,Cc1cc(F)ccc1-c1nc(NC[C@H](C)O)nc2c1ccc(=O)n2C1CCCCC1,< 10 µM
20,CSc1nc(-c2ccccc2F)c2ccc(=O)n(C(C)C)c2n1,< 10 µM
21,CS(=O)(=O)c1nc(-c2ccccc2Cl)c2ccc(=O)n(-c3ccccc3Cl)c2n1,< 10 µM
22,Cc1cc(F)ccc1-c1nc(OCCN(C)S(C)(=O)=O)nc2c1ccc(=O)n2-c1c(F)cccc1F,< 10 µM
23,Cc1cc(F)ccc1-c1nc(NCC(=O)N2CCCC2)nc2c1ccc(=O)n2-c1c(F)cccc1F,< 10 µM

row,SMILES,IC50
1,Cc1cc(F)ccc1-c1nc(N[C@H]2CCC[C@@H]2O)nc2c1ccc(=O)n2-c1c(F)cccc1F,< 10 µM
2,CC(C)n1c(=O)ccc2c(-c3ccccc3F)nc(NS(C)(=O)=O)nc21,< 10 µM
3,Cc1cc(F)ccc1-c1nc(OCC(CO)CO)nc2c1ccc(=O)n2-c1c(F)cccc1F,< 10 µM
4,Cc1cc(F)ccc1-c1nc(OC(CO)CO)nc2c1ccc(=O)n2-c1c(F)cccc1F,< 10 µM
5,Cc1cc(F)ccc1-c1nc(N[C@@H]2CCC[C@@H]2C(N)=O)nc2c1ccc(=O)n2-c1c(F)cccc1F,< 10 µM
6,Cc1cc(F)ccc1-c1nc(NCCCl)nc2c1ccc(=O)n2-c1c(F)cccc1F,< 10 µM
7,Cc1cc(F)ccc1-c1nc(NCCNC(=O)NC2CCCCC2)nc2c1ccc(=O)n2-c1c(F)cccc1F,< 10 µM
8,Cc1cc(F)ccc1-c1nc(NCCC#N)nc2c1ccc(=O)n2-c1c(F)cccc1F,< 10 µM
9,Cc1cc(F)ccc1-c1nc(NC2CCOC2)nc2c1ccc(=O)n2-c1c(F)cccc1F (centres undefined),< 10 µM
10,O=c1ccc2c(-c3ccccc3Cl)nc(NC3CCNCC3)nc2n1-c1ccccc1Cl,< 10 µM
11,CCC(C)n1c(=O)ccc2c(-c3ccc(F)cc3C)nc(SC)nc21 (centres undefined),< 10 µM
12,O=c1ccc2c(-c3ccccc3F)nc(NC(CO)CO)nc2n1-c1ccccc1F,< 10 µM
13,CSc1nc(-c2ccc(F)cc2C)c2c(n1)N(c1c(F)cccc1F)C(=O)CC2,< 10 µM
14,O=c1ccc2c(-c3ccccc3Cl)nc(OCCO)nc2n1-c1ccccc1Cl,< 10 µM
15,CN(C)CCNc1nc(-c2ccccc2Cl)c2ccc(=O)n(-c3ccccc3Cl)c2n1,< 10 µM
16,Cc1cc(F)ccc1-c1nc(NCCCS(C)(=O)=O)nc2c1ccc(=O)n2-c1c(F)cccc1F,< 10 µM
17,COCCNC(=O)CNc1nc(-c2ccc(F)cc2C)c2ccc(=O)n(-c3c(F)cccc3F)c2n1,< 10 µM
18,Nc1nc(-c2ccccc2F)c2ccc(=O)n(-c3c(F)cccc3F)c2n1,< 10 µM
19,Cc1cc(F)ccc1-c1nc(Nc2c[nH]c(=O)[nH]c2=O)nc2c1ccc(=O)n2-c1c(F)cccc1F,< 10 µM
20,CCC(CC)n1c(=O)ccc2c(-c3ccc(F)cc3C)nc(OC)nc21,< 10 µM
21,Cc1cc(F)ccc1-c1nc(NC[C@H](C)O)nc2c1ccc(=O)n2-c1ccccc1C,< 10 µM
22,Cc1cc(F)ccc1-c1nc(NCC(=O)NC2CC2)nc2c1ccc(=O)n2-c1c(F)cccc1F,< 10 µM

# Other lines, results leading:
row,IC50,SMILES
1,< 10 µM,Cc1cc(F)ccc1-c1nc(NCc2ncc[nH]2)nc2c1ccc(=O)n2-c1c(F)cccc1F
2,< 10 µM,Cc1cc(F)ccc1-c1nc(NC[C@H](C)O)nc2c1ccc(=O)n2-c1ccccc1F
3,< 10 µM,Cc1cc(F)ccc1-c1nc(NCCO)nc2c1ccc(=O)n2-c1c(C)cccc1C
4,< 10 µM,CNc1nc(-c2ccc(F)cc2C)c2ccc(=O)n(-c3c(F)cccc3F)c2n1
5,< 10 µM,Cc1cc(F)ccc1-c1nc(NCCNS(C)(=O)=O)nc2c1ccc(=O)n2-c1c(F)cccc1F
6,< 10 µM,Cc1cc(F)ccc1-c1nc(NCCNC(=O)C(C)(C)C)nc2c1ccc(=O)n2-c1c(F)cccc1F
7,< 10 µM,Cc1cc(F)ccc1-c1nc(NCCO)nc2c1ccc(=O)n2-c1c(F)cccc1F
8,< 10 µM,Cc1cc(F)ccc1-c1nc(NCCNC(=O)Nc2cccc(F)c2)nc2c1ccc(=O)n2-c1c(F)cccc1F
9,< 10 µM,Cc1cc(F)ccc1-c1nc(OCCN)nc2c1ccc(=O)n2-c1c(F)cccc1F
10,< 10 µM,Cc1cc(F)ccc1-c1nc(NCCO)nc2c1ccc(=O)n2-c1ccccc1F
11,< 10 µM,CCOC(=O)CNc1nc(-c2ccccc2Cl)c2ccc(=O)n(C(CC)CC)c2n1
12,< 10 µM,CCOC(=O)NCCNc1nc(-c2ccc(F)cc2C)c2ccc(=O)n(-c3c(F)cccc3F)c2n1
13,< 10 µM,CCN(CC)CCNc1nc(-c2ccccc2)c2ccc(=O)n(-c3ccccc3)c2n1
14,< 10 µM,Cc1cc(F)ccc1-c1nc(NCCc2nnn[nH]2)nc2c1ccc(=O)n2-c1c(F)cccc1F
15,< 10 µM,Cc1cc(F)ccc1-c1nc(NCC(F)(F)F)nc2c1ccc(=O)n2-c1ccccc1C
16,< 10 µM,Cc1cc(F)ccc1-c1nc(NS(C)(=O)=O)nc2c1ccc(=O)n2-c1c(F)cccc1F
17,< 10 µM,CSc1nc(-c2ccccc2F)c2ccc(=O)n(-c3c(F)cccc3F)c2n1
18,< 10 µM,Cc1cc(F)ccc1-c1nc(NC(CO)CO)nc2c1ccc(=O)n2-c1c(C)cccc1C
19,< 10 µM,O=c1ccc2c(-c3ccccc3F)nc(NC(CO)CO)nc2n1CC1CC1
20,< 10 µM,Cc1cc(F)ccc1-c1nc(NCC(=O)O)nc2c1ccc(=O)n2-c1c(F)cccc1F
21,< 10 µM,Cc1cc(F)ccc1-c1nc(N[C@H](C)CO)nc2c1ccc(=O)n2-c1c(F)cccc1F
22,< 10 µM,Cc1cc(F)ccc1-c1nc(NC(C)(C)CO)nc2c1ccc(=O)n2-c1c(F)cccc1F
23,< 10 µM,Cc1cc(F)ccc1-c1nc(NCCc2c[nH]cn2)nc2c1ccc(=O)n2-c1c(F)cccc1F
24,< 10 µM,Cc1cc(F)ccc1-c1nc(N[C@H]2CC[C@H](O)CC2)nc2c1ccc(=O)n2-c1ccccc1C
25,< 10 µM,Cc1cc(F)ccc1-c1nc(NCCNC(=O)CN)nc2c1ccc(=O)n2-c1c(F)cccc1F
26,< 10 µM,CSc1nc(-c2ccc(F)cc2C)c2ccc(=O)n(-c3ccccc3C)c2n1
27,< 10 µM,CC(C)n1c(=O)ccc2c(-c3ccccc3F)nc(NC(CO)CO)nc21

row,IC50,SMILES
1,< 10 µM,Cc1cc(F)ccc1-c1nc(NC2CCCCC2)nc2c1ccc(=O)n2-c1ccccc1F
2,< 10 µM,CSc1nc(-c2ccc(F)cc2C)c2ccc(=O)n(-c3c(C)cccc3C)c2n1
3,< 10 µM,O=c1ccc2c(-c3ccccc3Cl)nc(NCCO)nc2n1-c1ccccc1Cl
4,< 10 µM,CSc1nc(-c2ccccc2F)c2ccc(=O)n(C)c2n1
5,< 10 µM,CS(=O)(=O)Nc1nc(-c2ccccc2F)c2ccc(=O)n(-c3ccccc3F)c2n1
6,< 10 µM,CCC(=O)NCCNc1nc(-c2ccc(F)cc2C)c2ccc(=O)n(-c3c(F)cccc3F)c2n1
7,< 10 µM,Cc1cc(F)ccc1-c1nc(S(C)(=O)=O)nc2c1ccc(=O)n2C1CCCCC1
8,< 10 µM,CSc1nc(-c2ccccc2F)c2ccc(=O)[nH]c2n1
9,< 10 µM,CSc1nc(-c2ccccc2F)c2ccc(=O)n(CC3CC3)c2n1
10,< 10 µM,Cc1cc(F)ccc1-c1nc(NCCO)nc2c1ccc(=O)n2C(C)C
11,< 10 µM,Cc1cc(F)ccc1-c1nc(Nc2nc[nH]n2)nc2c1ccc(=O)n2-c1c(F)cccc1F
12,< 10 µM,CSc1nc(NC2CCCCC2)c(C=O)c(-c2ccc(F)cc2C)n1
13,< 10 µM,CSc1nc(-c2ccccc2F)c2ccc(=O)n(-c3ccccc3Cl)c2n1
14,< 10 µM,CSc1nc(-c2ccc(F)cc2C)c2ccc(=O)n(C3CC3)c2n1
15,< 10 µM,Cc1cc(F)ccc1-c1nc(NCC(=O)NCCO)nc2c1ccc(=O)n2-c1c(F)cccc1F
16,< 10 µM,CSc1nc(-c2ccc(F)cc2C)c2ccc(=O)n(CC3CC3)c2n1
17,< 10 µM,Cc1cc(F)ccc1-c1nc(NC2CCC(O)CC2)nc2c1ccc(=O)n2-c1ccccc1F (centres undefined)
18,< 10 µM,Cc1cc(F)ccc1-c1nc(NCC2CCS(=O)(=O)C2)nc2c1ccc(=O)n2-c1c(F)cccc1F (centres undefined)
19,< 10 µM,Cc1cc(F)ccc1-c1nc(Nc2ccnc(=O)[nH]2)nc2c1ccc(=O)n2-c1c(F)cccc1F
20,< 10 µM,Cc1cc(F)ccc1-c1nc(NCC(=O)N2CC(O)C2)nc2c1ccc(=O)n2-c1c(F)cccc1F
21,< 10 µM,Cc1cc(F)ccc1-c1nc(N[C@@H]2CS(=O)(=O)C[C@H]2O)nc2c1ccc(=O)n2-c1c(F)cccc1F
22,< 10 µM,Cc1cc(F)ccc1-c1nc(N[C@@H](C)CO)nc2c1ccc(=O)n2-c1ccccc1C
23,< 10 µM,Cc1cc(F)ccc1-c1nc(N(C)S(C)(=O)=O)nc2c1ccc(=O)n2C(C)C
24,< 10 µM,Cc1cc(F)ccc1-c1nc(NCC(C)(C)O)nc2c1ccc(=O)n2C1CCCCC1
25,< 10 µM,Cc1cc(F)ccc1-c1nc(NC(CO)CO)nc2c1ccc(=O)n2CC1CC1
26,< 10 µM,CCC(CC)n1c(=O)ccc2c(-c3ccccc3Cl)nc(NCCO)nc21
27,< 10 µM,CSc1nc(-c2ccccc2F)c2ccc(=O)n(-c3ccccc3F)c2n1
